# According to patent US10265311B2, “Methods and compositions for treatment of disorders ameliorated by muscarinic receptor activation” (PureTech Health LLC, priority 2009, dated 2019):
# Tests used:
# [1] = methscopolamine given with xanomeline; Medina et al. 1997; cited from earlier work
# [2] = with the anticholinergic agent glycopyrrolate; escalating amounts of RS-86; Alzheimer's Disease; cited from earlier work
# [3] = test system: normal healthy volunteers; test: Phase I double-blind randomized multiple-dose study, xanomeline alone vs xanomeline with trospium chloride: adverse event incidence; assay type: in vivo, human
# From the text: We conducted a Phase I, double-blind, randomized multiple-dose pilot study of xanomeline administered alone compared to xanomeline administered in combination with trospium chloride in normal healthy volunteers. […] The parameters of the study were as follows:
# 70 total study subjects were randomized, and of these, 68 study subjects received at least one assessment on day 3, which was the first day of xanomeline administration. The demographics of the study subjects were as follows:
# The incidence and number of cholinergic adverse events in the evaluable population of the study was as follows, with all p-values based on a chi-squared test, with the exception of those marked with a * which werebased on a Fisher's exact test: […]
# [4] = evaluable population, xanomeline 75 mg TID, trospium 20 mg BID or placebo, 7 days
smiles,measurement,setting,value
C[N+]1(C)[C@@H]2C[C@@H](OC(=O)[C@H](CO)c3ccccc3)C[C@H]1[C@@H]1O[C@@H]12 [methscopolamine],"effect on syncope, a side effect observed with xanomeline",[1],no effect on syncope
CCN1C(=O)CC2(CCN(C)CC2)C1=O [RS-86],improvement in cognition,[2],did not result in any improvement in cognition
"CCCCCCOc1nsnc1C1=CCCN(C)C1 [Xanomeline + placebo, Xanomeline]","Salivation, % of subjects","[3]; evaluable population, 7 days",36.4%
same,"Sweating, % of subjects","[3]; evaluable population, 7 days",48.5%
same,"Any cholinergic TEAEs, # of events",[3]; [4],64
same,"Any cholinergic TEAEs, % of subjects",[3]; [4],63.6%
same,"Any cholinergic TEAEs, n subjects",[3]; [4],21
same,"Any cholinergic TEAEs, % of subjects","[3]; evaluable population, xanomeline 75 mg TID, trospium 20 mg BID or placebo, 7 days, listed as xanomeline+placebo",63%
same,"Any SAE, # events",[3]; in vivo,0
same,"Any SAE, %",[3]; in vivo,0.0%
same,"Any study drug related TEAE, # events",[3]; in vivo,92
same,"Any study drug related TEAE, %",[3]; in vivo,69.7%
same,"Max Severity of TEAE Mild, %",[3]; in vivo,(66.7) N/A %
same,"Max Severity of TEAE Moderate, %",[3]; in vivo,(15.2) N/A %
same,"Max Severity of TEAE Severe, %",[3]; in vivo,(0.0) %
same,"Max severity of study drug related TEAE Mild, %",[3]; in vivo,(57/6) N/A
same,"Max severity of study drug related TEAE Moderate, %",[3]; in vivo,(12.1) N/A %
same,"Max severity of study drug related TEAE Severe, %",[3]; in vivo,(0.0) N/A %
